Measured values reported in US10328116B2, “Combinations of proteasome inhibitors and cyclic peptides” (BIG DNA LTD, priority 2014, dated 2019).
Read-outs that look alike come from different tables or passages of the source.

What was measured:
chymotrypsin-like sites = chymotrypsin-like sites (Homo sapiens, UniProt P28074); conditions: cited from earlier work
[1] = system: NCI H-929 human multiple myeloma cells; assay: NCI-H929 sub-cutaneous xenograft mouse tumor model, 'high' bortezomib dose (Example 7); type: in vivo; conditions: for Complete response (mice) / No response (mice) / Partial response (mice) / Total RR % (PR+CR): bortezomib 1 mg/kg IV biweekly, cilengitide 45 mg/kg IP QD, N = 10 mice per group
Text: This was then continued until Day 21.
Partial response (PR) is defined as the first measurement of the tumor volume being 50% or less of its Day 1 volume for three consecutive measurements during the course of the study, and equal to or greater than 13.5 mm^3 for one or more of these three measurements. In a complete response (CR), the tumor volume was less than 13.5 mm^3 for three consecutive measurements during the course of the study. Total response rate (RR) is the sum of PR+CR. Treatment began on day 1 and was stopped on Day 21.

[2] = system: NCI H-929 Multiple Myeloma Cell Line; assay: NCI H-929 sub-cutaneous xenograft, varied BTZ dose, TGI and TTE (Example 8); type: in vivo, mouse; conditions: endpoint day 18
Protocol: Cilengitide or vehicle was supplied as daily intra-peritoneal injection (45 mg/kg). […] After this point, dosing was continued in groups receiving 0.2 mg/kg and 0.5 mg/kg BTZ±cilengitide until day 31 to allow comparative tumour growth delay (i.e. difference in time to endpoint (TTE). […] TTE was calculated as TTE=[log(endpoint volume)-b]/m where TTE is expressed in days, endpoint volume is expressed in mm^3, b is the intercept, and m is the slope of the line obtained by linear regression of a log-transformed tumour growth data set. TTE values were plotted in Kaplan-Meier diagrams (FIGS. 9 and 10).

20S proteasome = 20S proteasome (Homo sapiens, UniProt P20618+P28074); conditions: cited from earlier work
[3] = system: CWR22 human prostate cancer xenografts; conditions: cited from earlier work
[4] = system: WSU-DLCL2 lymphoma xenograft; conditions: at MTD; cited from earlier work
HEK293 cells = assay: Sulforhodamine B relative cell growth assay in HEK293 cells (Examples 1-3); type: cell-based; conditions: HEK293 (αvβ3 +ve); 10 μM proteasome inhibitor, absence of cRGDfK
Protocol: Established methodology was used to prepare 80-100% confluent monolayers of HEK293 cells in T75 flasks. Cells were cultured in DMEM (Lonza) supplemented with 10% FBS (Gibco), 2 mM L-glutamine, 100 U/mL penicillin and 100 μg/mL streptomycin (“complete DMEM”).
The cells in T75 flasks were trypsinised and resuspended in complete DMEM. The cells were counted using a Neubauer chamber and seeded at approximate density of 3×10^4 cells/cm^2 and 7500 cells/cm^2 in 96 well flat bottomed tissue culture plates (Corning) 0.1 mL cell suspension per well. Cells were incubated for 24 hours at 37° C./5% CO2 (humidified).
To provide a working stock, BTZ was diluted to 10 mM in DMSO. […]
Briefly: medium was removed from wells and replaced with an equal volume of PBS. […] Optical density (OD570nm) was determined using an ELISA plate reader (Dynex MRX, Dynex Technologies).
In total, 5 replicates of the experiment were carried out. Cells treated with peptide/BTZ mixtures or control mixtures were incubated for 24 hours at 37° C./5% CO2 (humidified) then analysed by sulforhodamine B assay.
The average of the background measurements (i.e. no cells, medium only) was subtracted from each reading. ‘Ti’ is OD570nm following 24 hours treatment with drugs. […]
Using these equations, control cell growth is assigned a relative cell growth value of 100% and all cell growth values are calculated relative to this figure. […]

Cos7 cells = assay: Sulforhodamine B relative cell growth assay in Cos7 cells (Example 2); type: cell-based; conditions: COS-7 (αvβ3 −ve); 10 μM proteasome inhibitor, absence of cRGDfK
[5] = system: chymotrypsin-like activity of the proteasome; conditions: highest dose used in the phase I trial; cited from earlier work
[6] = phase II trials; heavily pretreated patient population; cited from earlier work
[7] = system: T47D breast cancer cell line; assay: Sulforhodamine B viability, isobologram and combination index in T47D cells (Examples 4-5); type: cell-based; conditions: single agent at its IC50
Protocol: For assessment of combined BTZ and cilengitide toxicity, T47D cells were seeded at a density of 7500 cells/cm^2 in 96-well cell culture plates and incubated for 24 hours. Cilengitide was diluted to 20 μM in complete DMEM, then 3 serial tenfold dilutions of this were performed in complete DMEM (2 μM, 200 nM and 20 nM). Complete DMEM containing no cilengitide was provided for negative controls.
These dilutions (or DMSO for wells containing no BTZ) were added to aliquots of complete DMEM containing 0-20 μM cilengitide for a 1/150 dilution. Aliquots (0.1 mL) of each mixture were added to wells already containing 0.1 mL medium (in duplicate), resulting in a matrix of cilengitide (10 nM-10 μM) and/or BTZ (1 nM-10 μM) or neither agent (diluent only).
OD570nm readings were divided by those resulting from negative control (diluent only) wells and expressed as a percentage. Three independent replicates of this experiment were carried out.
The isoboles were obtained similarly by extrapolation of points representing 50% reduction in viability from line graphs of % viability versus concentration of one agent at variable concentration with the other agent supplied at a fixed concentration. […]

Oci-Ly7-Luc = conditions: disseminated lymphoma; cited from earlier work
PHTX22L xenografts = conditions: MTD level treatment; cited from earlier work
DP54-Luc model = conditions: in vivo; cited from earlier work
[8] = at maximum tolerated dose (MTD)

Sequence of chymotrypsin-like sites (P28074 60-263): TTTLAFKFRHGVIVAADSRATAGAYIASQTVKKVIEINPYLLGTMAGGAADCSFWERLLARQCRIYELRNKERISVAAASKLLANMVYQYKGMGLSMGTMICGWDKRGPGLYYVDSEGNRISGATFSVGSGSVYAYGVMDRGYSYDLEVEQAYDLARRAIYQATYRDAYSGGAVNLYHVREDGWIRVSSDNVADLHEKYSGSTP

In the case of `C[C@@]12OC(=O)[C@]1([C@@H](O)[C@@H]1C=CCCC1)NC(=O)[C@@H]2CCCl` [Marizomib], the “inhibition of the chymotrypsin-like sites” value (chymotrypsin-like sites) is listed as “up to 100%”.
With `CC(C)C[C@H](NC(=O)[C@H](Cc1ccccc1)NC(=O)c1cnccn1)B(O)O` [Bortezomib] the “animals that relapsed (complete relapse)” value ([1]; By Day 42, of 10 animals per group) was 3, the “Tumour growth inhibition (TGI)” value ([2]; 0.5 mg/kg BTZ and below, without cilengitide) was “virtually ineffective” and the “Tumour growth inhibition (TGI)” value ([2]; BTZ doses of 0.7 mg/kg and greater, biweekly i.v.) was “almost complete TGI”. For the same compound, the proteasome dissociation half-life (20S proteasome) was “approximately 110 minutes”, the anti-tumoral activity [3, 8] was “effective anti-tumoral activity” and the anti-tumoral activity [4] was “ineffective”.
In the case of `CC(C)C[C@H](NC(=O)[C@H](CCc1ccccc1)NC(=O)CN1CCOCC1)C(=O)N[C@@H](Cc1ccccc1)C(=O)N[C@@H](CC(C)C)C(=O)[C@@]1(C)CO1` [Carfilzomib], the “cell growth relative to untreated control cells” value (HEK293 cells) is listed as “greater activity than ixazomib, delanzomib and oprozomib”, the “cell growth relative to untreated control cells” value (Cos7 cells) is listed as “greater activity than ixazomib, delanzomib and oprozomib” and the “inhibition of the chymotrypsin-like activity of the proteasome in blood of patients” value [5] is listed as 88%. The partial response rate [6] was 24%.
In the case of `CC(C)[C@H]1C(=O)N[C@@H](CCCN=C(N)N)C(=O)NCC(=O)N[C@@H](CC(=O)O)C(=O)N[C@H](Cc2ccccc2)C(=O)N1C` [Cilengitide], the “CI (combination index)” value [7] is reported as 1.00, the “Complete response (mice)” value ([1]; Day 1) is reported as 0 and the “No response (mice)” value ([1]; Day 1) is reported as 10. For the same compound, the “Partial response (mice)” value ([1]; Day 1) was 0, the “Total RR % (PR+CR)” value ([1]; Day 1) was 0% and the “Complete response (mice)” value ([1]; Day 4) was 0. The “No response (mice)” value ([1]; Day 4) was 10, the “Partial response (mice)” value ([1]; Day 4) was 0 and the “Total RR % (PR+CR)” value ([1]; Day 4) was 0%. The “Complete response (mice)” value ([1]; Day 8) was 0, the “No response (mice)” value ([1]; Day 8) was 10 and the “Partial response (mice)” value ([1]; Day 8) was 0. The “Total RR % (PR+CR)” value ([1]; Day 8) was 0%, the “Complete response (mice)” value ([1]; Day 12) was 0 and the “No response (mice)” value ([1]; Day 12) was 10. For the same compound, the “Partial response (mice)” value ([1]; Day 12) was 0, the “Total RR % (PR+CR)” value ([1]; Day 12) was 0% and the “Complete response (mice)” value ([1]; Day 15) was 0. For the same compound, the “No response (mice)” value ([1]; Day 15) was 10, the “Partial response (mice)” value ([1]; Day 15) was 0 and the “Total RR % (PR+CR)” value ([1]; Day 15) was 0%. The “Complete response (mice)” value ([1]; Day 18) was 0, the “No response (mice)” value ([1]; Day 18) was 10 and the “Partial response (mice)” value ([1]; Day 18) was 0. The “Total RR % (PR+CR)” value ([1]; Day 18) was 0%, the “Complete response (mice)” value ([1]; Day 21) was 0 and the “No response (mice)” value ([1]; Day 21) was 10. For the same compound, the “Partial response (mice)” value ([1]; Day 21) was 0 and the “Total RR % (PR+CR)” value ([1]; Day 21) was 0%.
In the case of `CC(C)C[C@H](NC(=O)CNC(=O)c1cc(Cl)ccc1Cl)B(O)O` [Ixazomib, [(1R)-1-[[2-[(2,5-dichlorobenzoyl)amino]acetyl]amino]-3-methyl-butyl]boronic acid], the proteasome dissociation half-life (20S proteasome) is given as “approximately 18 minutes”, the “release from the proteasome relative to bortezomib” value (20S proteasome; faster than bortezomib) is given as “approximately 6 fold” and the anti-tumoral activity ([3]; at half the MTD) is given as “more effective than bortezomib”. The anti-tumoral activity [3, 8] was “effective anti-tumoral activity”, the anti-tumoral activity [4] was “significant anti-tumoral activity” and the antitumoral effect (Oci-Ly7-Luc) was “improved antitumoral effect compared with bortezomib”. The anti-tumoral effect (PHTX22L xenografts) was “only ixazomib was found to exhibit an anti-tumoral effect” and the “alleviation of osteolytic bone disease” value (DP54-Luc model) was “effective in the alleviation of osteolytic bone disease”.
